Counter-ions that a name gives are not always drawn.

IC50 data for 34 compounds are collected here from patent US20100190788A1, “Amide derivatives as kinase inhitors” (priority 2005, published 2010).

The target in one assay is T1, human ROCKα/ROCKII mix (Homo sapiens, UniProt O75116).
T1 construct: purchased Upstate Biotechnology 14-451
T1 sequence (O75116 whole entry): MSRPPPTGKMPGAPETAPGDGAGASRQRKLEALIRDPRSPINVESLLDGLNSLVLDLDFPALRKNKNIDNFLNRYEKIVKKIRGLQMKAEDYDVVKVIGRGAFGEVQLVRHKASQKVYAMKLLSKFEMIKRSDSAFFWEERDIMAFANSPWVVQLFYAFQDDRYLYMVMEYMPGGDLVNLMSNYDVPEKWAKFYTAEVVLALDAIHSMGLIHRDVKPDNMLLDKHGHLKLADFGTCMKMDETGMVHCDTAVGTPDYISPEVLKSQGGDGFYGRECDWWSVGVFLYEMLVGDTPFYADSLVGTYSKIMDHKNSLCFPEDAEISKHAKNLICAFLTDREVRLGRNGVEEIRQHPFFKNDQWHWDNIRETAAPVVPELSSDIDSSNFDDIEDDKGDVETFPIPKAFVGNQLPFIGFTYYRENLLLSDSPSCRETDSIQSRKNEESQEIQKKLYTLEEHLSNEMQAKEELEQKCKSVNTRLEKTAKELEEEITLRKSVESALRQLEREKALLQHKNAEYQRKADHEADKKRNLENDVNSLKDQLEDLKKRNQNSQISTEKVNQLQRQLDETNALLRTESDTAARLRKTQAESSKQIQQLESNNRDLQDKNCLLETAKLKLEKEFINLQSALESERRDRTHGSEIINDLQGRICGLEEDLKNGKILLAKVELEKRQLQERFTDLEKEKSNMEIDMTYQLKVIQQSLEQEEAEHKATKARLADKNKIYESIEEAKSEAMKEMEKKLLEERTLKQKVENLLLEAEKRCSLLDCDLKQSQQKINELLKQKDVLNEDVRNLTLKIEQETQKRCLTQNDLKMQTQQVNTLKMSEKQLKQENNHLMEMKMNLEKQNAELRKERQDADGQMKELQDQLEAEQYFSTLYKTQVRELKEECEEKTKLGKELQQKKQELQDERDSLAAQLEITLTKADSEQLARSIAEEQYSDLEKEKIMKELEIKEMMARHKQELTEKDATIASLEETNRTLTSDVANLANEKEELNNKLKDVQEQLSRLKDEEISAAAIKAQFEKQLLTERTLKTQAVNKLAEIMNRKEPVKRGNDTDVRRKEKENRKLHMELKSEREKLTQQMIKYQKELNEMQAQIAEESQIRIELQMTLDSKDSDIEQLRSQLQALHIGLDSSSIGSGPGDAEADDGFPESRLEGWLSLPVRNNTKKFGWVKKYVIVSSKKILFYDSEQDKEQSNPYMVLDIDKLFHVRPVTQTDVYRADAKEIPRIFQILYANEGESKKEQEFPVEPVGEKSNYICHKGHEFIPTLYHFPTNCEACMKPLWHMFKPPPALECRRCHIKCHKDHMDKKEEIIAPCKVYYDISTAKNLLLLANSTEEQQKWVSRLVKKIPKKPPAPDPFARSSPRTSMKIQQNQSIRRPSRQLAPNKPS
The assay can be described thus: ROCK inhibition, fluorescence polarization (FP) assay with ROCK IMAP Kit. The class given is biochemical. The conditions noted are these: Table 1, compounds of Formula IV20. As for the experimental part: The compounds were tested for inhibition of human ROCKα/ROCKII mix.
The inhibition assays were performed with a fluorescence polarization (FP) assay using the commercially available ROCK IMAP Kit from Molecular Devices (Product ID. No. R8093), essentially in accordance with the protocol supplied by the manufacturer. […] The enzyme mix ROCKα/ROCKII was obtained from Upstate Biotechnology (Product ID No 14-451).
In summary, all compounds were screened in the wells of a 384 well plate for enzymatic inhibition with concentrations varying from 100 μM to 0.3 nM using a stepwise 3 (or 2)-fold dilution.
To perform the assay, 1 μl of a solution of the compound to be tested in DMSO (at each concentration) was added to 2 μl of a solution of the enzyme in 10 mM Tris-HCl, 10 mM MgCl2, 0.1% BSA, 0.05% NaN3, pH 7.2. The final concentration of the enzyme was 2.6 nM.
After incubating for 30 minutes at RT, 2 μl of a mixture of ATP and the protein substrate in 10 mM Tris-HCl, 10 mM MgCl2, 0.1% BSA, 0.05% NaN3, pH 7.2 was added. The final concentration of the ATP was 10 μM and final concentration of protein substrate was 0.2 μM.
After incubating for 60 minutes at RT, 12 μl of the IMAP Binding Solution (mix of the IMAP Binding Buffer A (1×) and the IMAP Binding Reagent (from the ROCK IMAP kit)) was added.
The mixture thus obtained (total volume: 17 μl) was incubated for 60 minutes at RT, upon which the fluorescence polarization was measured using an automated plate reader (Perkin Elmer, Model Envision 2100-0010 HTS) with FP filters: excitation filter FITC FP 480 and emission filters FITC FP P-pol 535 and FITC FP S-pol 535 (Perkin-Elmer). The results were fitted to a curve using the XL-Fit algorithm and IC50 values were calculated for each fitted curve, again using the XL-Fit algorithm.
On the technique in general: Polarisation of emitted light reports the rotation of a fluorescent probe.
The compound `CS(=O)(=O)NCCNC(=O)C(N)c1ccc(C(=O)Nc2ccncc2)cc1` (stereo not shown) [Compound 40, 4-[amino-(2-methanesulfonylamino-ethylcarbamoyl)-methyl]-N-pyridin-4-yl-benzamide] gave a half-maximal inhibitory concentration (IC50) of 0.5 to 5 µM.

The compound `NC(C(=O)NCc1cccc(Cl)c1)c1ccc(C(=O)Nc2ccncc2)cc1` (stereo not shown) [Compound 7, 4-[amino-(3-chloro-benzylcarbamoyl)-methyl]-N-pyridin-4-yl-benzamide] yielded an IC50 of under 0.5 µM.

Turning to `NC(C(=O)N1CC=C(c2ccc(F)cc2)CC1)c1ccc(C(=O)Nc2ccncc2)cc1` (stereo not shown) [Compound 29, 4-{1-amino-2-[4-(4-fluoro-phenyl)-3,6-dihydro-2H-pyridin-1-yl]-2-oxo-ethyl}-N-pyridin-4-yl-benzamide], the IC50 was in the range of 0.5 to 5 µM.

In turn, `NC(C(=O)NCc1ccccc1)c1ccc(C(=O)Nc2ccncc2)cc1` (stereo not shown) [Compound 1] had an IC50 of under 0.5 µM.

In turn, `CC1CN(C(=O)C(N)c2ccc(C(=O)Nc3ccncc3)cc2)CC(C)O1` (stereo not shown) [Compound 35, 4-[1-amino-2-(2,6-dimethyl-mopholin-4-yl)-2-oxo-ethyl]-N-pyridin-4-yl-benzamide] registered an IC50 of 0.5 to 5 µM.

Take `NC(C(=O)NCc1ccccn1)c1ccc(C(=O)Nc2ccncc2)cc1` (stereo not shown) [Compound 10, 4-{amino-[(pyridin-2-ylmethyl)-carbamoyl]-methyl}-N-pyridin-4-yl-benzamide]: the IC50 lay within 0.5 to 5 µM.

Compound `NC(C(=O)NCC1CCCO1)c1ccc(C(=O)Nc2ccncc2)cc1` (stereo not shown) [Compound 37, 4-{amino-[(tetrahydro-furan-2-ylmethyl)-carbamoyl]-methyl}-N-pyridin-4-yl-benzamide] had a half-inhibitory concentration (IC50) of 0.5 to 5 µM.

`NC(C(=O)N1CCN(CCO)CC1)c1ccc(C(=O)Nc2ccncc2)cc1` (stereo not shown) [Compound 52, 4-{1-amino-2-[4-(2-hydroxy-ethyl)-piperazin-1-yl]-2-oxo-ethyl}-N-pyridin-4-yl-benzamide] showed an IC50 of 0.5 to 5 µM.

With `CC(C)C(C)NC(=O)C(N)c1ccc(C(=O)Nc2ccncc2)cc1` (stereo not shown) [Compound 23, 4-[amino-(1,2-dimethyl-propylcarbamoyl)-methyl]-N-pyridin-4-yl-benzamide], the IC50 lay in the range of 0.5 to 5 µM.

Turning to `NC(C(=O)NCCc1ccccc1)c1ccc(C(=O)Nc2ccncc2)cc1` (stereo not shown) [Compound 14, 4-(amino-phenethylcarbamoyl-methyl)-N-pyridin-4-yl-benzamide], the IC50 was under 0.5 µM.

Compound “4-[1-amino-2-(1-methyl-piperidin-1-yl)-2-oxo-ethyl]-N-pyridin-4-yl-benzamide [Compound 26]” displayed an IC50 of under 0.5 µM.

Still in this assay, the particulars now being: Table 2, compounds of Formula V20.
As to `CCCCS(=O)(=O)NCC(N)c1ccc(C(=O)Nc2ccncc2)cc1` (stereo not shown) [Compound 58, 4-[1-amino-2-(butane-1-sulfonylamino)-ethyl]-N-pyridin-4-yl-benzamide], the 50% inhibitory concentration (IC50) is under 0.5 µM.

Take `Cc1ccc(S(=O)(=O)NCC(N)c2ccc(C(=O)Nc3ccncc3)cc2)cc1` (stereo not shown) [Compound 62, 4-[1-amino-2-(4-methyl-benzenesulfonylamino)-ethyl]-N-pyridin-4-yl-benzamide]: the IC50 is under 0.5 µM.

Compound `NC(CNS(=O)(=O)c1cccc2nonc12)c1ccc(C(=O)Nc2ccncc2)cc1` (stereo not shown) [Compound 81, 4-[1-amino-2-(benzo[1,2,5]-oxadiazole-4-sulfonylamino)-ethyl]-N-pyridin-4-yl-benzamide] had an IC50 of under 0.5 µM.

`NC(CNS(=O)(=O)Cc1ccccc1)c1ccc(C(=O)Nc2ccncc2)cc1` (stereo not shown) [Compound 60, 4-(1-amino-2-phenylmethanesulfonylamino-ethyl)-N-pyridin-4-yl-benzamide] displayed an IC50 of under 0.5 µM.

`COc1ccc(OC)c(S(=O)(=O)NCC(N)c2ccc(C(=O)Nc3ccncc3)cc2)c1` (stereo not shown) [Compound 72, 4-[1-amino-2-(2,5-dimethoxy-benzenesulfonylamino)-ethyl]-N-pyridin-4-yl-benzamide] displayed an IC50 of under 0.5 µM.

Consider `NC(CNS(=O)(=O)c1cccc(Cl)c1)c1ccc(C(=O)Nc2ccncc2)cc1` (stereo not shown) [Compound 68, 4-[1-amino-2-(3-chloro-benzenesulfonylamino)-ethyl]-N-pyridin-4-yl-benzamide], for which the IC50 is under 0.5 µM.

Take `Cc1cccc(S(=O)(=O)NCC(N)c2ccc(C(=O)Nc3ccncc3)cc2)c1` (stereo not shown) [Compound 63]: the half-maximal inhibitory concentration (IC50) is under 0.5 µM.

Compound `Cc1noc(C)c1S(=O)(=O)NCC(N)c1ccc(C(=O)Nc2ccncc2)cc1` (stereo not shown) [Compound 79, 4-[1-amino-2-(3,5-dimethyl-isoxazole-4-sulfonylamino)-ethyl]-N-pyridin-4-yl-benzamide] registered a 50% inhibitory concentration (IC50) of under 0.5 µM.

The same assay, now with this note: Table 3, compounds of Formula III20.
`NC(CC(=O)N1CCC(O)(c2ccccc2)CC1)c1ccc(C(=O)Nc2ccncc2)cc1` (stereo not shown) [Compound 111, 4-[1-amino-3-(4-hydroxy-4-phenyl-piperidin-1-yl)-3-oxo-propyl]-N-pyridin-4-yl-benzamide] displayed an IC50 of under 0.5 µM.

Consider `NC(CC(=O)N1CCN(c2ccccc2)CC1)c1ccc(C(=O)Nc2ccncc2)cc1` (stereo not shown) [Compound 116, 4-[1-amino-3-oxo-3-(4-phenyl-piperazin-1-yl)-propyl]-N-pyridin-4-yl-benzamide], for which the IC50 is under 0.5 µM.

As for `NC(CC(=O)N1CCC(c2c[nH]c3ccccc23)CC1)c1ccc(C(=O)Nc2ccncc2)cc1` (stereo not shown) [Compound 125, 4-{1-amino-3-[4-(1H-indol-3-yl)-piperidin-1-yl]-3-oxo-propyl}-N-pyridin-4-yl-benzamide], the IC50 was under 0.5 µM.

As for `NC(CC(=O)N1CCN(Cc2ccccc2F)CC1)c1ccc(C(=O)Nc2ccncc2)cc1` (stereo not shown) [Compound 122, 4-{1-amino-3-[4-(2-fluoro-benzyl)-piperazin-1-yl]-3-oxo-propyl}-N-pyridin-4-yl-benzamide], the 50% inhibitory concentration (IC50) was under 0.5 µM.

`NC(CC(=O)N1CCCCC1c1ccccc1)c1ccc(C(=O)Nc2ccncc2)cc1` (stereo not shown) [Compound 92, 4-[1-amino-3-oxo-3-(2-phenyl-piperidin-1-yl)-propyl]-N-pyridin-4-yl-benzamide] registered an IC50 of under 0.5 µM.

In the case of `NC(CC(=O)N1CCCC(CO)C1)c1ccc(C(=O)Nc2ccncc2)cc1` (stereo not shown) [Compound 109, 4-[1-amino-3-(3-hydroxymethyl-piperidin-1-yl)-3-oxo-propyl]-N-pyridin-4-yl-benzamide], the half-maximal inhibitory concentration (IC50) was under 0.5 µM.

For `NC(CC(=O)N1CCOCC1c1ccc(Cl)cc1)c1ccc(C(=O)Nc2ccncc2)cc1` (stereo not shown) [Compound 100, 4-{1-amino-3-[3-(4-chloro-phenyl)-morpholin-4-yl]-3-oxo-propyl}-N-pyridin-4-yl-benzamide], the IC50 was under 0.5 µM.

In turn, `NC(CC(=O)N1CCc2ccc(Cl)cc2C1)c1ccc(C(=O)Nc2ccncc2)cc1` (stereo not shown) [Compound 103, 4[1-amino-3-(7-chloro-3,4-dihydro-1H-isoquinolin-2-yl)-3-oxo-propyl]-N-pyridin-4-yl-benzamide] returned a concentration for half-maximal inhibition (IC50) of under 0.5 µM.

Take `NC(CC(=O)N1CCC(c2nc3ccccc3o2)CC1)c1ccc(C(=O)Nc2ccncc2)cc1` (stereo not shown) [Compound 120, 4-[1-amino-3-(4-benzooxazol-2-yl-piperidin-1-yl)-3-oxo-propyl]-N-pyridin-4-yl-benzamide]: the IC50 was under 0.5 µM.

With `NC(CC(=O)N1CCCC2CCCCC21)c1ccc(C(=O)Nc2ccncc2)cc1` (stereo not shown) [Compound 110, 4-[1-amino-3-(octahydro-quinolin-1-yl)-3-oxo-propyl]-N-pyridin-4-yl-benzamide], the IC50 is under 0.5 µM.

As to `NC(CC(=O)N1CCc2c(Cl)cccc2C1)c1ccc(C(=O)Nc2ccncc2)cc1` (stereo not shown) [Compound 102, 4-[1-amino-3-(5-chloro-3,4-dihydro-1H-isoquinolin-2-yl)-3-oxo-propyl]-N-pyridin-4-yl-benzamide], the half-maximal inhibitory concentration (IC50) was under 0.5 µM.

The assay is the same for the next values; noted with them: Table 4, compounds 132 to 156.
The compound `CN(CC(N)c1ccc(C(=O)Nc2ccncc2)cc1)S(=O)(=O)c1cccc(F)c1` (stereo not shown) [Compound 141, 4-{1-Amino-2-[(3-fluoro-benzenesulfonyl)-methyl-amino]-ethyl}-N-pyridin-4-yl-benzamide dihydrochloric acid salt] registered an IC50 of 0.5 to 5 µM.

For the compound `NC(c1ccc(C(=O)Nc2ccncc2)cc1)C1CCCN1S(=O)(=O)c1ccc(F)cc1` (stereo not shown) [Compound 138, 4-{Amino-[1-(4-fluoro-benzenesulfonyl)-pyrrolidin-2-yl]-methyl}-N-pyridin-4-yl-benzamide dihydrochloric acid salt], the concentration for half-maximal inhibition (IC50) fell in the range of 0.5 to 5 µM.

The compound `N[C@@H](CC(=O)N1CCC[C@@H]1c1cccc(F)c1)c1ccc(C(=O)Nc2ccncc2)cc1` [Compound 151, 4-{(S)-1-Amino-3-[(R)-2-(3-fluoro-phenyl)-pyrrolidin-1-yl]-3-oxo-propyl}-N-pyridin-4-yl-benzamide dihydrochloric acid salt] had an IC50 of under 0.5 µM.

Consider `CN(CC(N)c1ccc(C(=O)Nc2ccncc2)cc1)S(=O)(=O)c1cccc(Cl)c1` (stereo not shown) [Compound 144, 4-{1-Amino-2-[(3-chloro-benzenesulfonyl)-methyl-amino]-ethyl}-N-pyridin-4-yl-benzamide dihydrochloric acid salt], for which the IC50 was 0.5 to 5 µM.

What is called IC50 is the concentration at which inhibition is half-maximal. A high value points to weaker potency.
